Test results as given in article PMC5264272 (EBioMedicine, 2016).

Columns and labels:
murine Treg cells = assay: Treg suppression assay with Tregs pre-treated in vitro; format: cell-based; conditions: 10 μM, 2 h pre-treatment of Tregs, washing, 3-day suppression assay
[1] = tested on: human multiple myeloma cells; conditions: immunodeficient mice; ref Chauhan et al., 2012; cited from earlier work

## CC(=O)c1cc([N+](=O)[O-])c(Sc2cccc(Cl)c2Cl)s1 [P5091]
Murine Treg cells
  effect on murine Treg function in vitro: almost completely abrogated Treg function
[1]
  growth of human multiple myeloma cells as xenografts: direct effects on the growth
